Test results as given in ChEMBL document CHEMBL3885881, “DrugMatrix”.

Species: Rattus norvegicus
Test: DrugMatrix - Regimen: Daily Repeat
Type: toxicity, organism-based, Sprague-Dawley
Parameters: regimen Daily Repeat, gender Male, age 6-8 weeks
Settings: in vivo, po, route oral GAVAGE, vehicle 100 % WATER; for ABSOLUTE BASOPHIL / ABSOLUTE EOSINOPHIL / ABSOLUTE LYMPHOCYTE / ABSOLUTE MONOCYTE / ABSOLUTE SEGMENTED NEUTROPHIL / BASOPHIL / EOSINOPHIL / ERYTHROCYTE COUNT / HEMATOCRIT / HEMOGLOBIN / LEUKOCYTE COUNT / LYMPHOCYTE / MEAN CORPUSCULAR HEMOGLOBIN / MEAN CORPUSCULAR HEMOGLOBIN CONCENTRATION / MEAN CORPUSCULAR VOLUME / MONOCYTE / NEUTROPHIL / NUCLEATED RED BLOOD CELLS / PLATELET COUNT: tissue Blood; for ALANINE AMINOTRANSFERASE / ALBUMIN / ALKALINE PHOSPHATASE / ASPARTATE AMINOTRANSFERASE / BLOOD UREA NITROGEN / CARBON DIOXIDE / CHLORIDE / CHOLESTEROL / CREATINE PHOSPHOKINASE / CREATININE / GLUCOSE / LACTATE DEHYDROGENASE / LIPASE / PHOSPHORUS / POTASSIUM / SODIUM / TOTAL BILIRUBIN / TOTAL PROTEIN / URIC ACID: tissue Plasma
[1] = 50 mg/kg, 120 h, dose level Low, time 5 day
[2] = 1500 mg/kg, 72 h, dose level High, time 3 day
[3] = 1500 mg/kg, 120 h, dose level High, time 5 day

SMILES: Cc1ncc([N+](=O)[O-])n1CCO [METRONIDAZOLE]
- ABSOLUTE BASOPHIL [1]: 0 CELLS/uL
- ABSOLUTE EOSINOPHIL [1]: 0 CELLS/uL
- ABSOLUTE LYMPHOCYTE [1]: 11707 CELLS/uL
- ABSOLUTE MONOCYTE [1]: 0 CELLS/uL
- ABSOLUTE SEGMENTED NEUTROPHIL [1]: 459.67 CELLS/uL
- BASOPHIL [1]: 0%
- EOSINOPHIL [1]: 0%
- ERYTHROCYTE COUNT [1]: 6 x10E6/uL
- HEMATOCRIT [1]: 36.43%
- HEMOGLOBIN [1]: 13.8 G/DL
- LEUKOCYTE COUNT [1]: 12.17 x10E3/uL
- LYMPHOCYTE [1]: 96.33%
- MEAN CORPUSCULAR HEMOGLOBIN [1]: 23.03 pg
- MEAN CORPUSCULAR HEMOGLOBIN CONCENTRATION [1]: 37.87 G/DL
- MEAN CORPUSCULAR VOLUME [1]: 60.9 fL
- MONOCYTE [1]: 0%
- NEUTROPHIL [1]: 3.67%
- NUCLEATED RED BLOOD CELLS [1]: 0.33 /100WBC
- PLATELET COUNT [1]: 986 x10E3/uL
- ALANINE AMINOTRANSFERASE [1]: 61 u/L
- ALBUMIN [1]: 4.07 G/DL
- ALKALINE PHOSPHATASE [1]: 338 u/L
- ASPARTATE AMINOTRANSFERASE [1]: 108.33 u/L
- BLOOD UREA NITROGEN [1]: 13.67 mg/dL
- CARBON DIOXIDE [1]: 30.67 mmol/L
- CHLORIDE [1]: 100.33 MEQ/L
- CHOLESTEROL [1]: 67 mg/dL
- CREATINE PHOSPHOKINASE [1]: 1022 u/L
- CREATININE [1]: 0.16 mg/dL
- GLUCOSE [1]: 151.33 mg/dL
- LACTATE DEHYDROGENASE [1]: 207.67 u/L
- LIPASE [1]: 10.67 u/L
- PHOSPHORUS [1]: 11.73 mg/dL
- POTASSIUM [1]: 5.65 MEQ/L
- SODIUM [1]: 145.1 MEQ/L
- TOTAL BILIRUBIN [1]: 0.13 mg/dL
- TOTAL PROTEIN [1]: 6.17 G/DL
- URIC ACID [1]: 1 mg/dL
- ABSOLUTE BASOPHIL [2]: 0 CELLS/uL
- ABSOLUTE EOSINOPHIL [2]: 49.33 CELLS/uL
- ABSOLUTE LYMPHOCYTE [2]: 11170.67 CELLS/uL
- ABSOLUTE MONOCYTE [2]: 122.67 CELLS/uL
- ABSOLUTE SEGMENTED NEUTROPHIL [2]: 924 CELLS/uL
- BASOPHIL [2]: 0%
- EOSINOPHIL [2]: 0.33%
- ERYTHROCYTE COUNT [2]: 5.75 x10E6/uL
- HEMATOCRIT [2]: 36.7%
- HEMOGLOBIN [2]: 14.07 G/DL
- LEUKOCYTE COUNT [2]: 12.27 x10E3/uL
- LYMPHOCYTE [2]: 91.33%
- MEAN CORPUSCULAR HEMOGLOBIN [2]: 24.47 pg
- MEAN CORPUSCULAR HEMOGLOBIN CONCENTRATION [2]: 38.33 G/DL
- MEAN CORPUSCULAR VOLUME [2]: 63.8 fL
- MONOCYTE [2]: 1%
- NEUTROPHIL [2]: 7.33%
- NUCLEATED RED BLOOD CELLS [2]: 0 /100WBC
- PLATELET COUNT [2]: 1295.67 x10E3/uL
- ALANINE AMINOTRANSFERASE [2]: 71 u/L
- ALBUMIN [2]: 4.03 G/DL
- ALKALINE PHOSPHATASE [2]: 332 u/L
- ASPARTATE AMINOTRANSFERASE [2]: 84.33 u/L
- BLOOD UREA NITROGEN [2]: 15 mg/dL
- CARBON DIOXIDE [2]: 32.33 mmol/L
- CHLORIDE [2]: 102 MEQ/L
- CHOLESTEROL [2]: 87 mg/dL
- CREATINE PHOSPHOKINASE [2]: 331.67 u/L
- CREATININE [2]: 0.23 mg/dL
- GLUCOSE [2]: 134.67 mg/dL
- LACTATE DEHYDROGENASE [2]: 176.33 u/L
- LIPASE [2]: 12 u/L
- PHOSPHORUS [2]: 10.83 mg/dL
- POTASSIUM [2]: 5.73 MEQ/L
- SODIUM [2]: 146.4 MEQ/L
- TOTAL BILIRUBIN [2]: 0.1 mg/dL
- TOTAL PROTEIN [2]: 5.9 G/DL
- URIC ACID [2]: 0.4 mg/dL
- ABSOLUTE BASOPHIL [3]: 0 CELLS/uL
- ABSOLUTE EOSINOPHIL [3]: 0 CELLS/uL
- ABSOLUTE LYMPHOCYTE [3]: 10466.67 CELLS/uL
- ABSOLUTE MONOCYTE [3]: 94 CELLS/uL
- ABSOLUTE SEGMENTED NEUTROPHIL [3]: 906 CELLS/uL
- BASOPHIL [3]: 0%
- EOSINOPHIL [3]: 0%
- ERYTHROCYTE COUNT [3]: 6.09 x10E6/uL
- HEMATOCRIT [3]: 39.27%
- HEMOGLOBIN [3]: 15.2 G/DL
- LEUKOCYTE COUNT [3]: 11.47 x10E3/uL
- LYMPHOCYTE [3]: 91.67%
- MEAN CORPUSCULAR HEMOGLOBIN [3]: 25.03 pg
- MEAN CORPUSCULAR HEMOGLOBIN CONCENTRATION [3]: 38.73 G/DL
- MEAN CORPUSCULAR VOLUME [3]: 64.6 fL
- MONOCYTE [3]: 1%
- NEUTROPHIL [3]: 7.33%
- NUCLEATED RED BLOOD CELLS [3]: 0 /100WBC
- PLATELET COUNT [3]: 962 x10E3/uL
- ALANINE AMINOTRANSFERASE [3]: 79.33 u/L
- ALBUMIN [3]: 4.3 G/DL
- ALKALINE PHOSPHATASE [3]: 365 u/L
- ASPARTATE AMINOTRANSFERASE [3]: 91.67 u/L
- BLOOD UREA NITROGEN [3]: 17.67 mg/dL
- CARBON DIOXIDE [3]: 32.33 mmol/L
- CHLORIDE [3]: 101.67 MEQ/L
- CHOLESTEROL [3]: 66.33 mg/dL
- CREATINE PHOSPHOKINASE [3]: 679.67 u/L
- CREATININE [3]: 0.18 mg/dL
- GLUCOSE [3]: 138.33 mg/dL
- LACTATE DEHYDROGENASE [3]: 145.33 u/L
- LIPASE [3]: 11 u/L
- PHOSPHORUS [3]: 11.17 mg/dL
- POTASSIUM [3]: 6.28 MEQ/L
- SODIUM [3]: 147.87 MEQ/L
- TOTAL BILIRUBIN [3]: 0.13 mg/dL
- TOTAL PROTEIN [3]: 6.17 G/DL
- URIC ACID [3]: 0.83 mg/dL
